Source: patent US11807835B2, “Detergent compositions containing a stabilized enzyme by phosphonates” (ECOLAB USA INC., priority 2016, dated 2023)

Tested on: lipase
Test: Lipase activity retention in detergent use solution (4000 ppm, 5 GPG water; p-nitrophenyl valerate, TRIS buffer pH 8.0)
Format: biochemical
Conditions: for Relative Lipase Enzyme Activity in a Use Solution: Table 6E, room temperature; for Relative Lipase Enzyme Activity in a Use Solution of the All Ash Detergent Composition: Table 6F, all ash formula, 120º F.; for Relative Lipase Enzyme Activity: base formula
Procedure, shortened: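 Lipase stability was measured in a detergent use solution under conditions mimicking presoak or manual warewash, with stirring in a water bath. Aliquots were taken over time and flash-frozen. Thawed samples were diluted in TRIS buffer at pH 8.0 and assayed with p-nitrophenyl valerate as substrate on a plate reader. Activity is reported as % retained relative to the time=0 sample.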

[1] = phosphonate 0.3 wt-%, time 0 min
[2] = phosphonate 0.3 wt-%, time 5 min
[3] = phosphonate 0.3 wt-%, time 10 min
[4] = phosphonate 0.3 wt-%, time 20 min
[5] = phosphonate 0.3 wt-%, time 40 min
[6] = phosphonate 0.3 wt-%, time 60 min
[7] = phosphonate 0.3 wt-%, time 90 min
[8] = phosphonate 0.3 wt-%, time 120 min
[9] = phosphonate 0.3 wt-%, time 150 min
[10] = phosphonate 0.3 wt-%, time 180 min
[11] = phosphonate 0.3 wt-%, time 210 min
[12] = phosphonate 0.3 wt-%, time 240 min

SMILES: O=C(O)CCC(CC(=O)O)(C(=O)O)P(=O)(O)O (stereo not drawn) [PBTC, Phosphonebutane tricarboxylic acid]
- Relative Lipase Enzyme Activity in a Use Solution [1]: 100.00%
- Relative Lipase Enzyme Activity in a Use Solution [2]: 84.82%
- Relative Lipase Enzyme Activity in a Use Solution [3]: 101.70%
- Relative Lipase Enzyme Activity in a Use Solution [4]: 98.72%
- Relative Lipase Enzyme Activity in a Use Solution [5]: 109.31%
- Relative Lipase Enzyme Activity in a Use Solution [6]: 103.07%
- Relative Lipase Enzyme Activity in a Use Solution [7]: 104.82%
- Relative Lipase Enzyme Activity in a Use Solution [8]: 102.36%
- Relative Lipase Enzyme Activity in a Use Solution [9]: 105.67%
- Relative Lipase Enzyme Activity in a Use Solution [10]: 81.94%
- Relative Lipase Enzyme Activity in a Use Solution [11]: 101.51%
- Relative Lipase Enzyme Activity in a Use Solution [12]: 110.35%
- Relative Lipase Enzyme Activity in a Use Solution of the All Ash Detergent Composition [1]: 100.00%
- Relative Lipase Enzyme Activity in a Use Solution of the All Ash Detergent Composition [2]: 44.27%
- Relative Lipase Enzyme Activity in a Use Solution of the All Ash Detergent Composition [3]: 26.34%
- Relative Lipase Enzyme Activity in a Use Solution of the All Ash Detergent Composition [4]: 13.39%
- Relative Lipase Enzyme Activity in a Use Solution of the All Ash Detergent Composition [5]: 3.62%
- Relative Lipase Enzyme Activity in a Use Solution of the All Ash Detergent Composition [6]: 1.82%
- Relative Lipase Enzyme Activity in a Use Solution of the All Ash Detergent Composition [7]: 0.36%
- Relative Lipase Enzyme Activity in a Use Solution of the All Ash Detergent Composition [8]: 0.52%
- Relative Lipase Enzyme Activity in a Use Solution of the All Ash Detergent Composition [9]: 2.28%
- Relative Lipase Enzyme Activity in a Use Solution of the All Ash Detergent Composition [10]: 2.33%
- Relative Lipase Enzyme Activity in a Use Solution of the All Ash Detergent Composition [11]: 3.25%
- Relative Lipase Enzyme Activity in a Use Solution of the All Ash Detergent Composition [12]: 3.58%
- Relative Lipase Enzyme Activity (phosphonate 0.3 wt-%, use solution at 120° F., time 0 min): 100.00%
- Relative Lipase Enzyme Activity (phosphonate 0.3 wt-%, use solution at 120° F., time 5 min): 73.63%
- Relative Lipase Enzyme Activity (phosphonate 0.3 wt-%, use solution at 120° F., time 10 min): 66.55%
- Relative Lipase Enzyme Activity (phosphonate 0.3 wt-%, use solution at 120° F., time 20 min): 48.22%
- Relative Lipase Enzyme Activity (phosphonate 0.3 wt-%, use solution at 120° F., time 40 min): 26.23%
- Relative Lipase Enzyme Activity (phosphonate 0.3 wt-%, use solution at 120° F., time 60 min): 15.51%
- Relative Lipase Enzyme Activity (phosphonate 0.3 wt-%, use solution at 120° F., time 90 min): 7.72%
- Relative Lipase Enzyme Activity (phosphonate 0.3 wt-%, use solution at 120° F., time 120 min): 3.90%
- Relative Lipase Enzyme Activity (phosphonate 0.3 wt-%, use solution at 120° F., time 150 min): 2.70%
- Relative Lipase Enzyme Activity (phosphonate 0.3 wt-%, use solution at 120° F., time 180 min): −0.75%
- Relative Lipase Enzyme Activity (phosphonate 0.3 wt-%, use solution at 120° F., time 210 min): −1.86%
- Relative Lipase Enzyme Activity (phosphonate 0.3 wt-%, use solution at 120° F., time 240 min): −2.20%
- Relative Lipase Enzyme Activity (phosphonate 0.6 wt-%, use solution at 120º F., time 0 min): 100.00%
- Relative Lipase Enzyme Activity (phosphonate 0.6 wt-%, use solution at 120º F., time 5 min): 61.52%
- Relative Lipase Enzyme Activity (phosphonate 0.6 wt-%, use solution at 120º F., time 10 min): 62.20%
- Relative Lipase Enzyme Activity (phosphonate 0.6 wt-%, use solution at 120º F., time 20 min): 44.99%
- Relative Lipase Enzyme Activity (phosphonate 0.6 wt-%, use solution at 120º F., time 40 min): 31.89%
- Relative Lipase Enzyme Activity (phosphonate 0.6 wt-%, use solution at 120º F., time 60 min): 23.30%
- Relative Lipase Enzyme Activity (phosphonate 0.6 wt-%, use solution at 120º F., time 90 min): 16.36%
- Relative Lipase Enzyme Activity (phosphonate 0.6 wt-%, use solution at 120º F., time 120 min): 12.11%
- Relative Lipase Enzyme Activity (phosphonate 0.6 wt-%, use solution at 120º F., time 150 min): 9.68%
- Relative Lipase Enzyme Activity (phosphonate 0.6 wt-%, use solution at 120º F., time 180 min): 6.06%
- Relative Lipase Enzyme Activity (phosphonate 0.6 wt-%, use solution at 120º F., time 210 min): 6.80%
- Relative Lipase Enzyme Activity (phosphonate 0.6 wt-%, use solution at 120º F., time 240 min): 5.96%
- Relative Lipase Enzyme Activity (phosphonate at 0.1% elemental phosphorus, at 120º F. or at room temperature (as titled), time 0 min): 100.00%
- Relative Lipase Enzyme Activity (phosphonate at 0.1% elemental phosphorus, at 120º F. or at room temperature (as titled), time 5 min): 87.75%
- Relative Lipase Enzyme Activity (phosphonate at 0.1% elemental phosphorus, at 120º F. or at room temperature (as titled), time 10 min): 73.69%
- Relative Lipase Enzyme Activity (phosphonate at 0.1% elemental phosphorus, at 120º F. or at room temperature (as titled), time 20 min): 56.53%
- Relative Lipase Enzyme Activity (phosphonate at 0.1% elemental phosphorus, at 120º F. or at room temperature (as titled), time 40 min): 25.32%
- Relative Lipase Enzyme Activity (phosphonate at 0.1% elemental phosphorus, at 120º F. or at room temperature (as titled), time 60 min): 19.97%
- Relative Lipase Enzyme Activity (phosphonate at 0.1% elemental phosphorus, at 120º F. or at room temperature (as titled), time 90 min): 15.95%
- Relative Lipase Enzyme Activity (phosphonate at 0.1% elemental phosphorus, at 120º F. or at room temperature (as titled), time 120 min): 12.52%
- Relative Lipase Enzyme Activity (phosphonate at 0.1% elemental phosphorus, at 120º F. or at room temperature (as titled), time 150 min): 11.11%
- Relative Lipase Enzyme Activity (phosphonate at 0.1% elemental phosphorus, at 120º F. or at room temperature (as titled), time 180 min): 10.01%
- Relative Lipase Enzyme Activity (phosphonate at 0.1% elemental phosphorus, at 120º F. or at room temperature (as titled), time 210 min): 9.16%
- Relative Lipase Enzyme Activity (phosphonate at 0.1% elemental phosphorus, at 120º F. or at room temperature (as titled), time 240 min): 9.12%
